Experiment: Solubility of fluorescein in COH102 and COH206 buffer
Type: physicochemical
Settings: 0.1% in COH102 and COH206 buffer
Experimental: General Procedures. Transient colorants were subjected to irradiation or other sterilization methods to determine if they would be stable. Standard chemical mixing, measuring, and analytical methods were utilized. Solubilities for effective amounts of transient colorants mixed in starting materials (and in the final compositions) were verified by routine mixing followed by analytical procedures.
Fluorescein was tested at 0.1% in COH102 and COH206 buffer and found to be soluble. To test in COSEAL®, one-fifth volume of COH102 buffer was replaced with 0.1% to 1.0% fluorescein in COH102 buffer, and the PEGs, COH102, and COH206 were added and dissolved. The fluorescence was noted to go away upon dissolving the mixed PEGs, and the color changed to a light yellow. However, when the solution was sprayed with COH206 buffer to make the reaction product COSEAL®, the fluorescence returned. The final fluorescein concentration was 0.01% to 0.1% by weight of the final composition.

solubility: soluble
SMILES: O=C1OC2(c3ccc(O)cc3Oc3cc(O)ccc32)c2ccccc21 [Fluorescein, fluorescein]
